In patent US20060240494A1, “Biocidal molecules, macromolecular targets and methods of production and use” (priority 2000, published 2006):
Like-named read-outs stand apart in the source and are kept apart here. Non-standard residues stand in square brackets, D forms with d. No end group written: not given here. *: point of attachment. Biotin = O=C1N[C@H]2[C@H](CS[C@H]2CCCCC(=O)*)N1

What was measured:
[1] = target: E. coli DnaK fragment aa583-615 (D-E helix hinge) (Escherichia coli, UniProt P0A6Y8); assay: Fluorescence polarization with synthetic DnaK fragment aa583-615; format: binding; conditions: Tris HCl at pH 8.0; for binding to E. coli D-E helix hinge region aa583-615 at high concentration: 128 μM fragment
Experimental: The binding of the synthetic DnaK fragments to their fluorescein-labeled pyrrhocoricin counterparts was also assessed in solution, by fluorescence polarization [Lundblad, J. R. et al, (1996) Mol. Endocrinol. 10: 607-612]. For these experiments, the unlabeled peptides were serially diluted in PBS (pH 7.4) or 0.1 M Tris-HCl (pH 8.0) containing 0.1 M ethylene-diamine-tetraacetic acid (EDTA) in 50 μL final volume in 6×50 mm disposable glass borosilicate tubes. The fluoresceinated peptides were added to each tube in a 50 μL aliquot to a final concentration of 1 nM and tubes were incubated at 37° C. for 5 minutes. The extent of fluorescence anisotropy was measured on a Beacon 2000 fluorescence polarization instrument (PanVera, Madison, Wis.) and calculated as millipolarization values. The filters used were 485 nm excitation and 535 nm emission with 3 nm band width. Non-linear curve fitting was done by using a dose-response logistical transition [y=a0+a1/(1+x/a2)^a^3] and the Levenberg-Marquardt Algorithm within the SlideWrite software package. The provided Kd value (a2 coefficient) was calculated by the program.
To quantitatively characterize the pyrrhocoricin—D-E helix interaction, the complete binding curves were measured for E. coli DnaK fragments aa583-615 and aa588-615, both of SEQ ID NO: 10.

[2] = target: T1, S. aureus DnaK 554-585 (D-E helix fragment) (Staphylococcus aureus, UniProt P45554); assay: Fluorescence polarization with S. aureus DnaK D-E helix fragment; format: binding; conditions: Tris HCl at pH 8.0
T1 sequence (P45554 554-585 limits assumed): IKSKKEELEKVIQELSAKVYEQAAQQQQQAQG

[3] = target: blocked E. coli DnaK fragment aa591-615 (Escherichia coli, UniProt P0A6Y8); format: binding
[4] = system: β-galactosidase activities of live E. coli TG-1 cells; format: cell-based
recombinant E. coli DnaK = target: T2, recombinant E. coli DnaK (Escherichia coli, UniProt P0A6Y8); assay: EnzChek ATPase assay, recombinant DnaK; format: biochemical; conditions: 50 molar equivalents of peptide; 22° C., 30 min; UV absorbance at 360 nm
T2 construct: purchased StressGen, Victoria, Canada
Source text: To determine whether the proline-rich antibacterial peptides that were predicted to bind to DnaK between the peptide binding pocket and the C-terminus would interfere with ATPase activity, a recently developed continuous spectrophotometric (colorimetric) ATPase activity assay [Rieger, C. E. et al, (1997) Anal. Biochem. 246: 86-95] was used. This assay uses using 2-amino-6-mercapto-7-methylpurine ribonucleoside (MESG)/purine nucleoside phosphorylase reaction to detect the released inorganic phosphate (EnzChek ATPase determination kit from Molecular Probes, Eugene, USA). Assays were performed in 500 μL tubes in duplicates in a total volume of 125 μL containing 20 mM tris(hydroxymethyl)amino-ethane (Tris)-HCl, pH 7.6, 1 mM MgCl2, […] (except in assaying the baseline), 5 μg of DnaK (recombinant DnaK protein from StressGen,Victoria, Canada) and 50 molar equivalents of the particular peptide, MESG and the purine nucleoside phosphorylase recommended by the manufacturer. After incubation at 22° C. for 30 min, 100 μL of the reaction mixture was transferred to a quartz cuvette and the ultraviolet (UV) absorbance at 360 nm was measured. The assay was run in a miniaturized form to increase the concentration and therefore the enzymatic activity of DnaK. In a larger, standard format the ATPase activity of DnaK without peptide addition was 6 pmol/μg/min, in line with the published data of 4 pmol/μg/min [Liberek, K. et al, (1991) Proc. Natl. Acad. Sci. USA 88: 2874-2878].

[5] = system: alkaline phosphatase activities of live E. coli TG-1 cells; format: cell-based
E. coli D22 = conditions: Otvos et al, 2000, Protein Science; cited from earlier work
Hsp70 = Hsp70 (Homo sapiens, UniProt P0DMV8); conditions: nitrocellulose membrane-bound protein; 10 μg/ml peptide
[6] = target: E. coli DnaK aa583-615, hinge region between helices D and E (Escherichia coli, UniProt P0A6Y8); conditions: 5 μg fragment; 10 μg/mL biotin-labeled peptide
Source text: (§1) A control strip was stained with amido black 10B to verify the presence of all DnaK fragments on the nitrocellulose sheet.

[7] = target: E. coli DnaK aa397-439, conventional peptide binding pocket (Escherichia coli, UniProt P0A6Y8); conditions: non-specific binding; 10 μg/mL biotin-labeled peptide
Source text: as §1

GroEL = GroEL (Escherichia coli, UniProt P0A6F5); conditions: nitrocellulose membrane-bound protein; 10 μg/ml peptide
LPS from S. typhimurium = conditions: nitrocellulose membrane-bound LPS
DnaK = DnaK (Escherichia coli, UniProt P0A6Y8); conditions: 1 μg DnaK; biotin-labeled peptide
[8] = system: E. coli strains (including TG-1, or K-12)
E. coli LPS = conditions: nitrocellulose membrane-bound LPS
[9] = Hoffmann et al, 1999; cited from earlier work
[10] = peptide 32 μg/mL, live E. coli TG-1, three independent assays
[11] = peptide 32 μg/mL, live E. coli TG-1, four independent assays

Sequence of E. coli DnaK fragment aa583-615 (D-E helix hinge) (P0A6Y8 584-616): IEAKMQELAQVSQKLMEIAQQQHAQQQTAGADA
T2 sequence (P0A6Y8 whole entry): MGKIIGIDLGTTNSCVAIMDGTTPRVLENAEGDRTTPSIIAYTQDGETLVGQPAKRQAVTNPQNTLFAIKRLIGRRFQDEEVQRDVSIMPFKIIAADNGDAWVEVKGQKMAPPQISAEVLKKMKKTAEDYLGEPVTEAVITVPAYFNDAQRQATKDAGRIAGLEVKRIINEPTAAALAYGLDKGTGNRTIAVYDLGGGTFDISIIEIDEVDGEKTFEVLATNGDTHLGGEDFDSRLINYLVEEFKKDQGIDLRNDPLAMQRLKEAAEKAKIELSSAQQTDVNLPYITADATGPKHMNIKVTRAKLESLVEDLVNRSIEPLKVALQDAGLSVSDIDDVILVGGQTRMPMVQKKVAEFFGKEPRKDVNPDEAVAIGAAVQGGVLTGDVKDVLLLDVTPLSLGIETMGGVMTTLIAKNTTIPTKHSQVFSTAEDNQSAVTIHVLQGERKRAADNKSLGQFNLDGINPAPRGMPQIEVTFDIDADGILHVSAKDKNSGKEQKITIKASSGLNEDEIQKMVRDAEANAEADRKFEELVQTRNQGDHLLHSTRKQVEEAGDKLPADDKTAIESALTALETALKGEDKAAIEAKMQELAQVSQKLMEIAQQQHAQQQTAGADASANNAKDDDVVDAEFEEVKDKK
Sequence of blocked E. coli DnaK fragment aa591-615 (P0A6Y8 592-616 limits assumed): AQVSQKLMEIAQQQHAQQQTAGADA
Sequence of E. coli DnaK aa583-615, hinge region between helices D and E (P0A6Y8 584-616 limits assumed): as the sequence (P0A6Y8 584-616) above
Sequence of E. coli DnaK aa397-439, conventional peptide binding pocket (P0A6Y8 397-439): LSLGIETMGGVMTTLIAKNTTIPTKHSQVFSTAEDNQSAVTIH
Sequence of Hsp70 (P0DMV8 whole entry, the tested form may be a part): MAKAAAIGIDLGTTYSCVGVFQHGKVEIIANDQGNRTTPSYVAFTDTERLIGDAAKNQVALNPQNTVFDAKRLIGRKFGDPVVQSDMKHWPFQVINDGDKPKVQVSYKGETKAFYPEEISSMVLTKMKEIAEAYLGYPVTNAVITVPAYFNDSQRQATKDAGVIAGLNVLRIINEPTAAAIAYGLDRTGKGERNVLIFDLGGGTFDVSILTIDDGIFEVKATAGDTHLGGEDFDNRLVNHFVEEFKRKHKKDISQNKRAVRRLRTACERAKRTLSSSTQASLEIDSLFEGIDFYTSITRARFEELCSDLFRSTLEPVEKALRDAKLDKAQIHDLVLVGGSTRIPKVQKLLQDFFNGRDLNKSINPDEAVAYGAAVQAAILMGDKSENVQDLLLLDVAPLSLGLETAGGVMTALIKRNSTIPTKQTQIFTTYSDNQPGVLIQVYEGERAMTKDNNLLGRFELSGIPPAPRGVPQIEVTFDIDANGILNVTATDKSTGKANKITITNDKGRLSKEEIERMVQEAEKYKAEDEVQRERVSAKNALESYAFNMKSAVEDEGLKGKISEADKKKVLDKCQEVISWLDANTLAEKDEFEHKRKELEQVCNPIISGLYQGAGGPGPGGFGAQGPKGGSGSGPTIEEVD
Sequence of GroEL (P0A6F5 2-548 limits assumed): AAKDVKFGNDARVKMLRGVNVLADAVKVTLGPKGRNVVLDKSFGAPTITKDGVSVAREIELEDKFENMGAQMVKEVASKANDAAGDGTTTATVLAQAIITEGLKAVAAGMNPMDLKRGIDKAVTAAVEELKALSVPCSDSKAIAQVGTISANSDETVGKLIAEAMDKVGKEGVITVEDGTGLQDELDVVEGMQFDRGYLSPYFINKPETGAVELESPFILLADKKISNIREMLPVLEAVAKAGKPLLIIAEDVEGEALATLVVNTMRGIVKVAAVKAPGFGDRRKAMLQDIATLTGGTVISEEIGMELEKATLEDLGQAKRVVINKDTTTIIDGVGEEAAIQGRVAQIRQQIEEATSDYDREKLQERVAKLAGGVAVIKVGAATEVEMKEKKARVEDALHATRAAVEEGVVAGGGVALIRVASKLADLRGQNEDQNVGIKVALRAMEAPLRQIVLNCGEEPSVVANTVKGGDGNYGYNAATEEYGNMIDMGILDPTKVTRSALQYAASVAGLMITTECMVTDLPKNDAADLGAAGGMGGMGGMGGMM
Sequence of DnaK (P0A6Y8 whole entry): as the sequence (P0A6Y8 whole entry) above

N—F-drosocin: drosocin with fluorescein label attached at the N-terminus (fluorescein-KGKPRPYSPRPTSHPRPIRV)
binding to E. coli D-E helix hinge region aa583-615 at high concentration [1]: some binding
binding to S. aureus D-E helix fragment [2]: failed to bind
binding to blocked E. coli DnaK fragment aa591-615 [3]: failed to bind

NTDGSTDYGILQINSR
binding to E. coli D-E helix hinge region aa583-615 ([1]; labeled peptide 1 nM): failed to bind

Magainin 2: antibacterial peptide that kills bacteria by disintegrating the membrane; from Bachem (GIGKFLHSAKKFGKAFVGEIMNS)
Inhibition of enzymatic activity after 1 hour (%) β-Galactosidase [4, 10]: (−50) ± 55%
effect on ATPase activity of recombinant DnaK (recombinant E. coli DnaK): did not influence
Inhibition of enzymatic activity after 1 hour (%) Alkaline Phosphatase [5, 11]: (−23) ± 38%

Conantokin G
Inhibition of enzymatic activity after 1 hour (%) β-Galactosidase [4]: (−10) ± 10%
Inhibition of enzymatic activity after 1 hour (%) Alkaline Phosphatase [5]: (−3) ± 23%

Cecropin A: membrane-active antimicrobial peptide; purchased from Bachem (KWKLFKKIEKVGQNIRDGIIKAGPAVAVVGQATQIAK)
effect on ATPase activity of recombinant DnaK (recombinant E. coli DnaK): did not influence

D-pyrrhocoricin: SEQ ID NO: 3 with all amino acids in the D configuration; inactive analog ([dV][dD][dK]G[dS][dY][dL][dP][dR][dP][dT][dP][dP][dR][dP][dI][dY][dN][dR][dN])
Inhibition of enzymatic activity after 1 hour (%) β-Galactosidase [4, 10]: (−4) ± 43%
effect on ATPase activity of recombinant DnaK (recombinant E. coli DnaK): negligible effect
Inhibition of enzymatic activity after 1 hour (%) Alkaline Phosphatase [5, 11]: (−6) ± 16%
killing of E. coli D22 (E. coli D22): completely inactive

N—F-apidaecin: apidaecin with fluorescein label attached at the N-terminus
binding to E. coli D-E helix hinge region aa583-615 at high concentration [1]: some binding
binding to S. aureus D-E helix fragment [2]: failed to bind

Biotin-KVDKGSYLPRPTPPRPIYNRN [biotin-K-pyrrhocoricin]
binding to Hsp70 on the peptide blot (Hsp70): very weak peptide binding
dot blot binding to D-E helix hinge fragment [6]: bound
dot blot binding to peptide-binding pocket fragment [7]: similarly bound
binding to GroEL on the peptide blot (GroEL): very weak peptide binding
binding to S. typhimurium LPS on Western-blot (LPS from S. typhimurium): did not label LPS bands
binding to DnaK on the peptide blot (DnaK): bound strongly
concentration range killing E. coli strains [8]: submicromolar range
binding to E. coli LPS on Western-blot (E. coli LPS): did not label LPS bands

native glycosylated drosocin: native drosocin glycopeptide with a disaccharide in the mid-chain position (GKPRPYSPRPTSHPRPIRV; also: O-glycosylated disaccharide in mid-chain position; UniProt P36193 22-40, looked up)
antibacterial activity when injected into mice [9]: no antibacterial activity
